Earlier results as cited in patent publication US20250221954A1, “METHODS TO TREAT, PREVENT, OR REDUCE HYPERAMMONEMIA” (priority 2024, published 2025).

Tests used:
[1] = decrease in clearance with increased dose
[2] = prolonged, multiday maintenance of phenylacetate infusions

| SMILES | elimination [1] | potential neurotoxicity [2] |
| --- | --- | --- |
| O=C([O-])Cc1ccccc1.[Na+] [phenylacetate, sodium phenylacetate] | saturable, non-linear elimination | somnolence, fatigue, and lightheadedness |
| O=C([O-])c1ccccc1.[Na+] [benzoate, sodium benzoate] | saturable, non-linear elimination |  |
